Test results: publication PMC10818623, “Assessing Trans-Inhibition of OATP1B1 and OATP1B3 by Calcineurin and/or PPIase Inhibitors and Global Identification of OATP1B1/3-Associated Proteins” (Pharmaceutics, 2023)
“And” between values parts separate entries of the source, which are not always exact repeats. Identical values can stand only once. Like-named read-outs stand apart in the source and are kept apart here.

Key:
[1] = molecular target: T1, OATP1B1 (Homo sapiens, UniProt Q9Y6L6); test: Preincubation-induced trans-inhibition of OATP1B1-mediated [3H]-E217βG transport in HEK293-FLAG-OATP1B1 cells; assay type: cell-based; set-up: expressed in transfected cells; conditions: for IC50: washing, [3H]-E217βG 1 µM 2 min without inhibitor, HEK293-FLAG-OATP1B1, read-out: Preincubation IC50 against OATP1B1
T1 sequence (Q9Y6L6 1-691): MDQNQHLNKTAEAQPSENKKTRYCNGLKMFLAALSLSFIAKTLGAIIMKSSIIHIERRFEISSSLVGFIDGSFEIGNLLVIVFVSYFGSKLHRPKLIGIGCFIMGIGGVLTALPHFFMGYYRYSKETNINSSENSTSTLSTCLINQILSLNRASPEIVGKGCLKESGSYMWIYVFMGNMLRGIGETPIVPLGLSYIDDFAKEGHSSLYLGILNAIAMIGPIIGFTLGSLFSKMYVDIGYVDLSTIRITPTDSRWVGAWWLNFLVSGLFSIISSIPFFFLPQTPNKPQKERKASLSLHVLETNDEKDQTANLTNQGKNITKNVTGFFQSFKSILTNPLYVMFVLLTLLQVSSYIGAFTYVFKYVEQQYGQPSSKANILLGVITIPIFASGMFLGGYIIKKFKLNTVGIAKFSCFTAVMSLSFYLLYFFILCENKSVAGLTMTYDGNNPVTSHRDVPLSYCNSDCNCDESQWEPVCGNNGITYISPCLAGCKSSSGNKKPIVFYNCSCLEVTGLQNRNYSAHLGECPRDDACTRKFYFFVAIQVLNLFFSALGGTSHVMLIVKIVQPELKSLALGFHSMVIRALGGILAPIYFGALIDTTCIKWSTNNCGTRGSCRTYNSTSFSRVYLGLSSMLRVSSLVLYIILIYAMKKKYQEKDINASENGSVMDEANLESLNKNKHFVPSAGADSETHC
Source text: The IC50 values were estimated by nonlinear regression using the three-parameter model as below with GraphPad Prism v.9.0 (GraphPad Software, La Jolla, CA, USA). E = Bottom + (Top − Bottom)/(1 + (C/IC50))

[2] = molecular target: T2, OATP1B3 (Homo sapiens, UniProt Q9NPD5); test: Preincubation-induced trans-inhibition of OATP1B3-mediated [3H]-CCK-8 transport in HEK293-FLAG-OATP1B3 cells; assay type: cell-based; conditions: preincubation 10–60 min with tacrolimus 1–10 µM; greatest reduction
T2 construct: expressed in transfected cells
T2 sequence (Q9NPD5 1-702): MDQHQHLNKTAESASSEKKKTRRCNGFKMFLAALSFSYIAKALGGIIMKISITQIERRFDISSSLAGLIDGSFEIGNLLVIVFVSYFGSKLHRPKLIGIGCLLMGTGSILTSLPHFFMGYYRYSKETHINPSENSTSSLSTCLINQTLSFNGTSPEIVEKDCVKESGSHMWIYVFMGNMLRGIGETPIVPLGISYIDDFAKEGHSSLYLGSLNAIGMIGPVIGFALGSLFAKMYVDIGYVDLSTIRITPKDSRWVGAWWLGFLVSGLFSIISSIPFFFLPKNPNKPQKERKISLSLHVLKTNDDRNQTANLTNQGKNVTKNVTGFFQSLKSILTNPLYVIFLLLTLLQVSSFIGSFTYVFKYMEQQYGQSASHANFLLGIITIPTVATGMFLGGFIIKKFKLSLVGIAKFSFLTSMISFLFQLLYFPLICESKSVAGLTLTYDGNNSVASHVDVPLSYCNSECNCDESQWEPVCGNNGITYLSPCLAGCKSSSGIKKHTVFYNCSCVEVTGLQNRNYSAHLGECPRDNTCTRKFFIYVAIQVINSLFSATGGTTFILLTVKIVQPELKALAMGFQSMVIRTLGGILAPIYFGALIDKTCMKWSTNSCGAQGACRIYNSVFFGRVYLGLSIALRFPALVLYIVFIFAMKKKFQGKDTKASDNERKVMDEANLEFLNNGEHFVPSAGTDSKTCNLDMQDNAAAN
Experimental: (§1) HEK293-FLAG-OATP1B1 and HEK293-FLAG-OATP1B3 cells were seeded at a density of 1.5 × 10^5 cells per well of 24-well plate coated with poly-L-lysine and allowed to grow for 48 h to confluence before uptake studies were performed as published previously; the preincubation effects on OATP1B1- and OATP1B3-mediated transport were also determined as previously published. […] After washing three times with HBSS buffer (pH 7.4), substrate accumulation was determined in the absence of inhibitors. [^3H]-E217βG (1 µM, 2 min) and [^3H]-E1S (1 µM, 2 min) were used as probe substrates for OATP1B1; [^3H]-CCK-8 (1 µM, 3 min) was used as the probe substrate for OATP1B3, similar to previous publications. [^3H]-pitavastatin accumulation (1 µM, 30 s) in human SCH was conducted on day 2 of culture as has been published previously. Substrate accumulation was determined by scintillation counting (LS6500 scintillation counter, Beckman Coulter, Brea, CA) and normalized to a protein concentration determined via BCA assay (Pierce Chemical, Rockford, IL, USA). Transport assays on a blank plate without cells were conducted to correct for the nonspecific binding to the assay plate.

[3] = test system: human SCH; test: [3H]-pitavastatin accumulation in human sandwich-cultured hepatocytes after inhibitor preincubation and washing; assay type: cell-based; conditions: 10 µM
Experimental: Fresh primary human hepatocytes were purchased from Lonza Walkersville, Inc. (Walkersville, MD, USA). Donor information is provided in Supplementary Table S1. Cell viability was 96% after centrifugation. Culture of human SCH was performed as described previously. In brief, on day 1, cells were plated at 3 × 10^5 cells per well in 24-well Biocoat™ plates (Thermo Fisher Scientific, Waltham, MA, USA). When cells had attached to the plate after 6 h of seeding, cells were overlaid with Matrigel™ (Thermo Fisher Scientific, Waltham, MA, USA) (0.25 mg/mL) in feeding medium: phenol red-free DMEM supplemented with 2 mM L-glutamine, 1% (v/v) MEM NEAA, 100 units/mL of penicillin G sodium, 100 µg/mL of streptomycin sulfate, 0.1 μM dexamethasone, and 1% (v/v) ITS^+ premix. Uptake experiments were conducted on day two of culture, the next day after seeding.

[4] = molecular target: T2, OATP1B3; set-up: method as in PMID 22240838; conditions: cited from earlier work
[5] = cited from earlier work
[6] = molecular target: T1, OATP1B1; conditions: E1S as substrate; cited from earlier work
[7] = molecular target: T1, OATP1B1; test: Preincubation-induced trans-inhibition of OATP1B1-mediated [3H]-E1S transport in HEK293-FLAG-OATP1B1 cells; assay type: cell-based; set-up: expressed in transfected cells; conditions: E1S 1 µM, 2 min
Experimental: as §1

In the case of `C/C=C/C[C@@H](C)[C@@H](O)[C@H]1C(=O)N[C@@H](CC)C(=O)N(C)[C@H](SCCN(C)C)C(=O)N(C)[C@@H](CC(C)(C)O)C(=O)N[C@@H](C(C)C)C(=O)N(C)[C@@H](CC(C)C)C(=O)N[C@@H](C)C(=O)N[C@H](C)C(=O)N(C)[C@@H](CC(C)C)C(=O)N(C)[C@@H](CC(C)C)C(=O)N(C)[C@@H](C(C)C)C(=O)N1C` [SCY-635], the IC50 ([1]; 10 min preincubation (0.001–10 µM)) is reported as ~9.4 µM and 9.4 µM, the IC50 ([1]; 30 min preincubation (0.001–10 µM)) is reported as ~3.1 µM and 3.1 µM and the IC50 ([1]; 60 min preincubation (0.001–10 µM)) is reported as 2.2 ± 1.4 µM. The “IC50 against OATP1B1, fold greater than that of CsA” value ([1]; 60 min preincubation, SCY-635 IC50 versus CsA IC50) was ~ 18 fold, the “Preincubation IC50 at 30 min, fold higher than IC50 at 60 min preincubation” value ([1]; OATP1B1, 30 min versus 60 min preincubation) was 1.4 fold and the “Effect of preincubation on OATP1B1-mediated transport” value ([1]; SCY-635, all preincubation times, only at 5 and 10 µM, p < 0.00001) was “significantly reduced”.
In the case of `C=CC[C@@H]1/C=C(\C)C[C@H](C)C[C@H](OC)[C@H]2O[C@@](O)(C(=O)C(=O)N3CCCC[C@H]3C(=O)O[C@H](/C(C)=C/[C@@H]3CC[C@@H](O)[C@H](OC)C3)[C@H](C)[C@@H](O)CC1=O)[C@H](C)C[C@@H]2OC` [tacrolimus], the “OATP1B3-mediated transport, reduced up to, fold compared to the control” value [2] is reported as 0.20 ± 0.02 fold compared to the control, the “[3H]-pitavastatin accumulation after washout (long-lasting inhibition), fold that of the control” value [3] is reported as 0.59 ± 0.09 fold that of the control and the “[3H]-pitavastatin accumulation, fold that of the control” value ([3]; human SCH, 1 h preincubation, washing, pitavastatin 1 µM, 0.5 min, N = 1 donor) is reported as 0.58 ± 0.07 fold that of the control. For the same compound, the “Preincubation-induced trans-inhibition against OATP1B3” value [4] was “no preincubation-induced trans-inhibition”, the DDI against atorvastatin [5] was “does not cause DDIs” and the DDI against simvastatin [5] was “does not cause DDIs”. The “Increase of AUC of cerivastatin” value ([5]; long-term tacrolimus treatment, renal transplant recipients) was 1.5 fold, the “Increase of AUC of pravastatin” value ([5]; long-term tacrolimus treatment, two pediatric and adolescent cardiac transplant recipients) was ~ 10 fold and the “Preincubation-induced trans-inhibition against OATP1B1” value [6] was “no preincubation-induced trans-inhibition”. The “OATP1B1-mediated transport, reduced up to, fold compared to the control” value ([1]; preincubation 10–60 min with tacrolimus 1–10 µM, greatest reduction) was 0.18 ± 0.03 fold compared to the control, the “OATP1B1-mediated transport of [3H]-E1S, fold that of the control” value ([7]; 1 µM preincubation, 10 min) was 0.85 ± 0.02 fold that of the control and the “OATP1B1-mediated transport of [3H]-E1S, fold that of the control” value ([7]; 1 µM preincubation, 30 min) was 0.88 ± 0.04 fold that of the control. For the same compound, the “OATP1B1-mediated transport of [3H]-E1S, fold that of the control” value ([7]; 10 µM preincubation, 10 min) was 0.59 ± 0.04 fold that of the control, the “OATP1B1-mediated transport of [3H]-E1S, fold that of the control” value ([7]; 10 µM preincubation, 30 min) was 0.59 ± 0.05 fold that of the control and the “OATP1B1-mediated transport of [3H]-E1S, fold that of the control” value ([7]; 10 µM preincubation, 60 min) was 0.55 ± 0.04 fold that of the control.
